Data from patent US7223780B2, “Triazole-derivatives as blood clotting enzyme factor Xa inhibitors” (Sanofi-Aventis Deutschland GmbH, priority 2003, dated 2007).

Target: T1, human factor Xa (Homo sapiens, UniProt P00742)
T1 construct: 25 μl human factor Xa (Enzyme Research Laboratories, Inc; South Bend, Ind.); purchased Enzyme Research Laboratories, Inc; South Bend, Ind
Test: Factor Xa chromogenic assay (substrate S-2765)
Assay type: biochemical
Settings: inhibition constant for factor Xa, calculated from IC50 by Ki=IC50/{1+(substrate concentration/Km)}; 0.5 nM enzyme, 140 μM S-2765, 25° C.; read-out: Ki(FXa)
Experimental: The ability of the compounds of the formula I or II to inhibit factor Xa or factor VIIa or other enzymes like thrombin, plasmin, or trypsin can be assessed by determining the concentration of the compound of the formula I or II that inhibits enzyme activity by 50%, i.e. the IC50 value, which was related to the inhibition constant Ki. Purified enzymes were used in chromogenic assays. The concentration of inhibitor that causes a 50% decrease in the rate of substrate hydrolysis was determined by linear regression after plotting the relative rates of hydrolysis (compared to the uninhibited control) versus the log of the concentration of the compound of formulae I, II, Ia, Ib, Ic, Id, IIa, IIb or IId. For calculating the inhibition constant Ki, the IC50 value was corrected for competition with substrate using the formula Ki=IC50/{1+(substrate concentration/Km)} wherein Km is the Michaelis-Menten constant (Chen and Prusoff, Biochem. Pharmacol. 22 (1973) 3099–3108; I. H. Segal, Enzyme Kinetics, 1975, John Wiley & Sons, New York, 100–125; which were incorporated herein by reference). a) Factor Xa Assay
In the assay for determining the inhibition of factor Xa activity TBS-PEG buffer (50 mM Tris-HCl, pH 7.8, 200 mM NaCl, 0.05% (w/v) PEG-8000, 0.02% (w/v) NaN3) was used. The IC50 was determined by combining in appropriate wells of a Costar half-area microtiter plate 25 μl human factor Xa (Enzyme Research Laboratories, Inc.; South Bend, Ind.) in TBS-PEG; 40 μl 10% (v/v) DMSO in TBS-PEG (uninhibited control) or various concentrations of the compound to be tested diluted in 10% (v/v) DMSO in TBS-PEG; and substrate S-2765 (N((α)-benzyloxycarbonyl-D-Arg-Gly-L-Arg-p-nitroanilide; Kabi Pharmacia, Inc.; Franklin, Ohio) in TBS-PEG.
The assay was performed by pre-incubating the compound of formula I or II plus enzyme for 10 min. Then the assay was initiated by adding substrate to obtain a final volume of 100 μl. The initial velocity of chromogenic substrate hydrolysis was measured by the change in absorbance at 405 nm using a Bio-tek Instruments kinetic plate reader (Ceres UV900HDi) at 25° C. during the linear portion of the time course (usually 1.5 min after addition of substrate). The enzyme concentration was 0.5 nM and substrate concentration was 140 μM.

T1 sequence (P00742 235-488 limits assumed): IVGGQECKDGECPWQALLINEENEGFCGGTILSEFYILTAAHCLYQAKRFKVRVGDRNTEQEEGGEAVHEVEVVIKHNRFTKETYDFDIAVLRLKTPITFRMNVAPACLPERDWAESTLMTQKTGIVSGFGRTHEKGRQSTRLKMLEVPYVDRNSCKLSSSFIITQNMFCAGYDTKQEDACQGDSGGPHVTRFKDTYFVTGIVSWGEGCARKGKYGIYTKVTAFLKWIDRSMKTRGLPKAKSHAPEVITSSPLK
T1 sequence (P00742 41-179 partner limits assumed): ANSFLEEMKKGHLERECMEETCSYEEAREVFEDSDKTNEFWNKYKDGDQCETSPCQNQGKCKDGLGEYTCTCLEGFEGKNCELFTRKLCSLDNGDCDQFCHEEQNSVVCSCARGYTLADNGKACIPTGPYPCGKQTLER

Row | SMILES | Ki
1 | CC(C)N1CCC(NC(=O)c2nc(-n3cccc3)n(Cc3cc(-c4ccc(Cl)s4)on3)n2)CC1 [Example 1, 1-[5-(5-Chloro-thiophen-2-yl)-isoxazol-3-ylmethyl]-5-pyrrol-1-yl-1H-[1,2,4]triazole-3-carboxylic acid (1-isopropyl-piperidin-4-yl)-amide] | 0.054 µM
2 | CC(C)N1CCC(NC(=O)c2nc(-c3ccccn3)n(Cc3cc(-c4ccc(Cl)s4)on3)n2)CC1 [Example 2, 1-[5-(5-Chloro-thiophen-2-yl)-isoxazol-3-ylmethyl]-5-pyridin-2-yl-1H-[1,2,4]triazole-3-carboxylic acid (1-isopropyl-piperidin-4-yl)-amide] | 0.08 µM
3 | CC(C)N1CCC(NC(=O)c2nnn(Cc3cc(-c4ccc(Cl)s4)on3)n2)CC1 [Example 5, 2-[5-(5-Chloro-thiophen-2-yl)-isoxazol-3-ylmethyl]-2H-tetrazole-5-carboxylic acid (1-isopropyl-piperidin-4-yl)-amide] | 0.33 µM
4 | CC(C)N1CCC(NC(=O)c2nc(-c3ccccn3)nn2Cc2cc(-c3ccc(Cl)s3)on2)CC1 [Example 3, 2-[5-(5-Chloro-thiophen-2-yl)-isoxazol-3-ylmethyl]-5-pyridin-2-yl-2H-[1,2,4]triazole-3-carboxylic acid (1-isopropyl-piperidin-4-yl)-amide] | 0.1 µM
